Measurements published in US20070066686A1, “Infusion preparation containing (2r)-2-propyloctanoic acid as at the active ingredient” (ONO PHARMACEUTICAL CO., LTD., priority 2003, published 2007).

System: dog
Experiment: single intravenous administration toxicity using a dog
Type: in vivo
Details: dose of 100 mg/kg
Source text: Toxicity of (2R)-2-propyloctanoic acid or a salt thereof is very low, and it is considered to be sufficiently safe for the use as a pharmaceutical drug.

## CCCCCC[C@@H](CCC)C(=O)O [(2R)-2-propyloctanoic acid]
  death after single intravenous administration: did not result in death
